Source: paper PMC5564600 (Oncotarget, 2017)

Key:
Assay in all cases: biochemical
Format in all cases: binding
panel of 442 kinases [1] = molecular target: T1, panel of 442 kinases (Homo sapiens, UniProt Q9H093); settings: kinase SNARK; for remaining activity at 1 µM: read-out: SNARK (% of control at 1 µM)
T1 construct: purchased Ambit Biosciences (scanMAXX KINOMEscan)
T1 sequence (Q9H093 1-628): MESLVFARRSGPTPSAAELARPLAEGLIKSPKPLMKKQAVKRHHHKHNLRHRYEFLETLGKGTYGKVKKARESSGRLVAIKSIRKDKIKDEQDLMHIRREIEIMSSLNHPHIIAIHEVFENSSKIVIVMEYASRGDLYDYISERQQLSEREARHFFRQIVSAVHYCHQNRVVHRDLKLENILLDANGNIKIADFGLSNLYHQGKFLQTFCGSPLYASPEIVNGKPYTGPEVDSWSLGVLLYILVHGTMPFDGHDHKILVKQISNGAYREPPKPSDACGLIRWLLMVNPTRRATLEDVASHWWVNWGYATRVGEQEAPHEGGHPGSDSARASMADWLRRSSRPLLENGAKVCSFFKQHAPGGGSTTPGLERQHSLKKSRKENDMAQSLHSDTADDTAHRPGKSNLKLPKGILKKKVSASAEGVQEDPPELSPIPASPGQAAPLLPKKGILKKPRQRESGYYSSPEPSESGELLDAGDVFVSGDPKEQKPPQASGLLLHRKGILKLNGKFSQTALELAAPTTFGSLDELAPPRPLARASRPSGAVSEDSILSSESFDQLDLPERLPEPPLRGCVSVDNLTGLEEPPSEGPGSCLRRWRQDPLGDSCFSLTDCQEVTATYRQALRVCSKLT

panel of 442 kinases [2] = molecular target: T2, panel of 442 kinases (Homo sapiens, UniProt Q13554); settings: CAMK2B; for remaining activity at 1 µM: read-out: % of control at 1 µM
T2 construct: purchased Ambit Biosciences (scanMAXX KINOMEscan)
T2 sequence (Q13554 whole entry): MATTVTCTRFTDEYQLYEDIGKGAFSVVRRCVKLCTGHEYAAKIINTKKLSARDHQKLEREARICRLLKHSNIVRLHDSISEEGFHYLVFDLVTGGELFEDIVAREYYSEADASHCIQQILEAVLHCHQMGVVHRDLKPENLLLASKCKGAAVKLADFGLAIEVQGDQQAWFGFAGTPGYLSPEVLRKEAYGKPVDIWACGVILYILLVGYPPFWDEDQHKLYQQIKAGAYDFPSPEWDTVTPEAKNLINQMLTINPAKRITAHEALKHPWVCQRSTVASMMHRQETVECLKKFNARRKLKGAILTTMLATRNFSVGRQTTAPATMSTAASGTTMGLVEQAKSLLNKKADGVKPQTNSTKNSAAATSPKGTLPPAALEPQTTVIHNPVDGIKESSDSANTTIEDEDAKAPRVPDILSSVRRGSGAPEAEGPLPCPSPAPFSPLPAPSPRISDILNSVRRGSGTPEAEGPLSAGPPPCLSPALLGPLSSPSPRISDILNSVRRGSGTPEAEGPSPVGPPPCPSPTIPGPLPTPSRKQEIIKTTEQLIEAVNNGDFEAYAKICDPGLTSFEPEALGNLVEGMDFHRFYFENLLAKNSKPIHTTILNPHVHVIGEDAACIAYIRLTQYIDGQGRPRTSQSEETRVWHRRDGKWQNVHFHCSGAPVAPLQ

panel of 442 kinases [3] = molecular target: T3, panel of 442 kinases (Homo sapiens, UniProt P51956); settings: kinase NEK3; for remaining activity at 1 µM: read-out: % of control at 1 µM
T3 construct: purchased Ambit Biosciences (scanMAXX KINOMEscan)
T3 sequence (P51956 1-506): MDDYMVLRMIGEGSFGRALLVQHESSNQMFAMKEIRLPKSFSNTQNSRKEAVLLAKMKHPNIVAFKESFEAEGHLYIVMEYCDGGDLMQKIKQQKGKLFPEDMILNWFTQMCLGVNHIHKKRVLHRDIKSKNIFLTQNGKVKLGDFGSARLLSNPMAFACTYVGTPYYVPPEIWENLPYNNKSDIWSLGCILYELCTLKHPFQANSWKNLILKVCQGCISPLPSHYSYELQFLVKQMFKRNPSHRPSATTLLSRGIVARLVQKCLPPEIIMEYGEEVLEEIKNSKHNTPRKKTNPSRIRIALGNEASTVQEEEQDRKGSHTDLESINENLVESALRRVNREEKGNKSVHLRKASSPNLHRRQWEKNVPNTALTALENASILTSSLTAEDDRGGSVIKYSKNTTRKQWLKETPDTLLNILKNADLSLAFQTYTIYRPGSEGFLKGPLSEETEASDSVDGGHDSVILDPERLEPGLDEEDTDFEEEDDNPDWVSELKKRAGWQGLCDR

panel of 442 kinases [4] = molecular target: T4, panel of 442 kinases (Homo sapiens, UniProt Q9Y616); settings: kinase IRAK3; for remaining activity at 1 µM: read-out: % of control at 1 µM
T4 construct: purchased Ambit Biosciences (scanMAXX KINOMEscan)
T4 sequence (Q9Y616 1-596): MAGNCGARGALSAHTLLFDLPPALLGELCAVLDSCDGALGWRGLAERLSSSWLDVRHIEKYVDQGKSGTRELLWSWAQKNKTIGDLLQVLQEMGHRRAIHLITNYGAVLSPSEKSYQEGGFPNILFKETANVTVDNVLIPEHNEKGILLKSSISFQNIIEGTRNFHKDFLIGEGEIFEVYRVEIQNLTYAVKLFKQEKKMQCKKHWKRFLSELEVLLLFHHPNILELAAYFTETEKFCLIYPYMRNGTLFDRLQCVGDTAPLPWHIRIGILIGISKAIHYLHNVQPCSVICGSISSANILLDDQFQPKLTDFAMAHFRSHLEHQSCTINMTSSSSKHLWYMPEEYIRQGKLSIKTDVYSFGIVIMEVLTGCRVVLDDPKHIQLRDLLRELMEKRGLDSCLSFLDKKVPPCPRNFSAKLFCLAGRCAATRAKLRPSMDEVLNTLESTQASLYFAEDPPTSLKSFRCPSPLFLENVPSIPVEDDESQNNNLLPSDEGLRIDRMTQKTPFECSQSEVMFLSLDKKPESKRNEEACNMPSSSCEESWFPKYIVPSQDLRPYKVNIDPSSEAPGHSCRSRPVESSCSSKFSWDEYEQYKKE

panel of 442 kinases [5] = molecular target: T5, panel of 442 kinases (Homo sapiens, UniProt P51812); settings: kinase RSK2(Kin.Dom.1-N-terminal); for remaining activity at 1 µM: read-out: RSK2(Kin.Dom.1-N-terminal) (% of control at 1 µM)
T5 construct: purchased Ambit Biosciences (scanMAXX KINOMEscan)
T5 sequence (P51812 whole entry): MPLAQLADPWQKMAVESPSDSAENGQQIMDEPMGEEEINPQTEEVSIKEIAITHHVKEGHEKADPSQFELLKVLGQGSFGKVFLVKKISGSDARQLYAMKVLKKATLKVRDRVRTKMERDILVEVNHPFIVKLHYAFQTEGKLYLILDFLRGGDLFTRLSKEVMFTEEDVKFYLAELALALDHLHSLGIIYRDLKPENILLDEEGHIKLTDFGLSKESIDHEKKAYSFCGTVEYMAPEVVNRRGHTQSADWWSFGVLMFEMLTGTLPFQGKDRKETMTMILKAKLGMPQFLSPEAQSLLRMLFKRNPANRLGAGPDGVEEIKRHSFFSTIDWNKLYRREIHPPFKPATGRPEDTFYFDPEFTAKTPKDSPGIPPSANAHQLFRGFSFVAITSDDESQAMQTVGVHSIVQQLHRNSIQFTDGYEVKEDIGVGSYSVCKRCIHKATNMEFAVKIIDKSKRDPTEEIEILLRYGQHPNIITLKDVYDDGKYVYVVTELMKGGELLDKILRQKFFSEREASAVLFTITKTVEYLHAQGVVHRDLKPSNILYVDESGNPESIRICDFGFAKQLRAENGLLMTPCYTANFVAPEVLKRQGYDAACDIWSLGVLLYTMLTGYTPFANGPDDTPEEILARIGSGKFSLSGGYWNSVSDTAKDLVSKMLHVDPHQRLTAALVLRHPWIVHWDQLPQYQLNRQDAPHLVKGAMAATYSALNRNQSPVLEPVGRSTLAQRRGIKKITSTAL

panel of 442 kinases [6] = molecular target: T6, panel of 442 kinases (Homo sapiens, UniProt P36507); settings: kinase MEK2; for remaining activity at 1 µM: read-out: % of control at 1 µM
T6 construct: purchased Ambit Biosciences (scanMAXX KINOMEscan)
T6 sequence (P36507 whole entry): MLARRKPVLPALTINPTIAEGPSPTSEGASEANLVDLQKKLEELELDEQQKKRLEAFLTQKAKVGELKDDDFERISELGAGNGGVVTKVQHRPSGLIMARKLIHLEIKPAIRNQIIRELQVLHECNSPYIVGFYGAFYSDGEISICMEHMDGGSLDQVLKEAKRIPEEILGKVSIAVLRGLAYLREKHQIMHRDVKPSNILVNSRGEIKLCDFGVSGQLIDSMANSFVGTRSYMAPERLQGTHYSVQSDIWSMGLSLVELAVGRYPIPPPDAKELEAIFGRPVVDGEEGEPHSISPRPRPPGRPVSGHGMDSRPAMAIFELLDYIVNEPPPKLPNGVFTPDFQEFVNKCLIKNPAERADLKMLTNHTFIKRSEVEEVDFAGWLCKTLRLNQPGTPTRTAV

panel of 442 kinases [7] = molecular target: T7, panel of 442 kinases (Homo sapiens, UniProt Q6P3R8); settings: kinase NEK5; for remaining activity at 1 µM: read-out: % of control at 1 µM
T7 construct: purchased Ambit Biosciences (scanMAXX KINOMEscan)
T7 sequence (Q6P3R8 1-708): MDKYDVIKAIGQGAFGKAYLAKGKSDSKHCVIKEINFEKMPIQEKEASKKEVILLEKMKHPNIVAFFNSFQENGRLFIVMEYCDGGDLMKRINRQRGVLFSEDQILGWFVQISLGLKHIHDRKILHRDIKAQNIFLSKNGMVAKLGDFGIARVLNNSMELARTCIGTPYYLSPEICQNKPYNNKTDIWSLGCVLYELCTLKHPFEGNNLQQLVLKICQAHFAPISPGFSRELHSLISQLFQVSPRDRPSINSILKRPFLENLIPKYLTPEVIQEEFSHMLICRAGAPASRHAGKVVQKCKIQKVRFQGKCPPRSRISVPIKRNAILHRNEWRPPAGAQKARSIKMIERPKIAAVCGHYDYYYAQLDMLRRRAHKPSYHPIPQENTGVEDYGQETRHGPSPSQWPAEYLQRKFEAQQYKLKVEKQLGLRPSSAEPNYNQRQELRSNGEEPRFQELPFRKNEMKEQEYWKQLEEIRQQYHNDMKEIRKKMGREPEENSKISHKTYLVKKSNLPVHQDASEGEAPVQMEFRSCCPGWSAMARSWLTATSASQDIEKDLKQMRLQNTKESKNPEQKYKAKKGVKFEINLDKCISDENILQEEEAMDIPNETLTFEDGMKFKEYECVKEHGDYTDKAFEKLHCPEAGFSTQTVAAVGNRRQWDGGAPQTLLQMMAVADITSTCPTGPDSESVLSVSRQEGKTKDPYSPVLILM

[8] = 10 µM, read-out: % of control at 10 µM

Structure (SMILES)	remaining activity at 1 µM (panel of 442 kinases [1]) [%]	remaining activity at 10 µM (panel of 442 kinases [1]; 10 µM, read-out: SNARK (% of control at 10 µM)) [%]	remaining activity at 1 µM (panel of 442 kinases [2]) [%]	remaining activity at 10 µM (panel of 442 kinases [2]; [8]) [%]	remaining activity at 1 µM (panel of 442 kinases [3]) [%]	remaining activity at 10 µM (panel of 442 kinases [3]; [8]) [%]	remaining activity at 1 µM (panel of 442 kinases [4]) [%]	remaining activity at 10 µM (panel of 442 kinases [4]; [8]) [%]	remaining activity at 1 µM (panel of 442 kinases [5]) [%]	remaining activity at 10 µM (panel of 442 kinases [5]; 10 µM, read-out: RSK2(Kin.Dom.1-N-terminal) (% of control at 10 µM)) [%]	remaining activity at 1 µM (panel of 442 kinases [6]) [%]	remaining activity at 10 µM (panel of 442 kinases [6]; [8]) [%]	remaining activity at 1 µM (panel of 442 kinases [7]) [%]	remaining activity at 10 µM (panel of 442 kinases [7]; [8]) [%]
Nc1cc(C(F)(F)F)c(-c2cc(N3CCOCC3)nc(N3CCOCC3)n2)cn1 [Buparlisib]	100	100	80	79	99	100	95	96	99	87	100	100	100	88
Cn1c(=O)n(-c2ccc(C(C)(C)C#N)cc2)c2c3cc(-c4cnc5ccccc5c4)ccc3ncc21 [Dactolisib, 2-methyl-2-[4-(3-methyl-2-oxo-8-quinolin-3-yl-2,3-dihydroimidazo[4,5-c]quinolin-1-yl)-phenyl] propionitrile]	34		87		78		50				73		62	
COc1ncc(-c2ccc3nccc(-c4ccnnc4)c3c2)cc1NS(=O)(=O)c1ccc(F)cc1F [Omipalisib]	100		100		93		26		62		99		100	
FC(F)c1nc2ccccc2n1-c1nc(N2CCOCC2)nc(N2CCOCC2)n1 [ZSTK474, 2-(difluoromethyl)-1-[4,6-di(4-morpholinyl)-1,3,5-triazin-2-yl]-1H-benzimidazole]	100		100		73		100		88		97		89	
